Consider one compound from ChEMBL document CHEMBL4602644, “Synthesis of PJOV56, a new quinoxalinyl-hydrazone derivative able to induce autophagy and apoptosis in colorectal cancer cells, and related compounds” (Bioorg Med Chem Lett, 2020).

Active and inactive are the calls of the source. No cut-off for these calls is given here.

In general, IC50 refers to the midpoint of a concentration-inhibition curve.

For one test, the system named is L929. Nature of the test: Cytotoxicity against mouse L929 cells assessed as reduction in cell viability measured after 72 hrs by MTT assay. The note with it: L929, 72 h. The test is classed as cell-based.
The test system of test [1] is HCT-116. Briefly: Cell cycle arrest in human HCT116 cells assessed as accumulation at G0/G1 phase at 1.5 uM measured after 48 hrs by propidium iodide staining based flow cytometry (reference value: 41.67 %). Type of test: functional.
For test [2], the system named is HCT-116. Nature of the test: Disruption of membrane integrity in human HCT116 cells assessed as increase in non-viable cells at 3 uM measured after 48 hrs by propidium iodide staining based flow cytometry relative to control. Type of test: functional. (In general: A flow cytometer gives signals particle by particle.)
Another test concerns HL-60. Nature of the test: Cytotoxicity against human HL60 cells assessed as reduction in cell viability measured after 72 hrs by MTT assay. The note with it: HL-60, 72 h. The test is classed as functional, cell-based.
In test [3] the test system is HCT-116. Briefly: Cell cycle arrest in human HCT116 cells assessed as accumulation at G2/M phase at 3 uM measured after 48 hrs by propidium iodide staining based flow cytometry (reference value: 24.98 %). The test is classed as functional.
The test system of test [4] is HCT-116. Nature of the test: Induction of autophagy in human HCT116 cells assessed as formation of autophagic vacuoles at 3 to 6 uM measured after 48 hrs by monodansylcadaverine staining based confocal microscopy. Type of test: functional, cell-based.
The next test concerns OVCAR-8. Briefly: Cytotoxicity against human OVCAR8 cells assessed as cell growth inhibition at 5 ug/ml measured after 72 hrs by MTT assay relative to control. The conditions noted are these: OVCAR-8, 72 h, read-out: GI. The test is classed as functional. (Tetrazolium dyes change colour on reduction, which living cells bring about.)
Test [5] relates to HCT-116. Nature of the test: Induction of apoptosis in human HCT116 cells assessed as early apoptotic cells at 1.5 uM measured after 48 hrs by annexinV-PE/7-AAD staining based flow cytometric analysis (reference value: 6.53 %). The test is classed as functional.
Test [6] has as its system HCT-116. Nature of the test: Disruption of membrane integrity in human HCT116 cells assessed as increase in non-viable cells at 6 uM measured after 48 hrs by propidium iodide staining based flow cytometry relative to control. Type of test: functional.
For test [7], the system named is HCT-116. Nature of the test: Induction of DNA fragmentation in human HCT116 cells at 6 uM measured after 48 hrs by propidium iodide staining based flow cytometry relative to control. The test is classed as functional.
In test [8] the test system is HCT-116. Nature of the test: Induction of autophagy in human HCT116 cells decrease in Beclin 1 level at 6 uM measured after 48 hrs by Western blot analysis. Type of test: functional, cell-based. On the technique in general: A western blot detects proteins with antibodies after separation by electrophoresis.
For another test, the system named is K562. Briefly: Cytotoxicity against human K562 cells assessed as reduction in cell viability measured after 72 hrs by MTT assay. Type of test: functional, cell-based. The note with it: K562, 72 h.
Test [9] relates to HCT-116. Briefly: Induction of apoptosis in human HCT116 cells assessed as live cells at 3 uM measured after 48 hrs by annexinV-PE/7-AAD staining based flow cytometric analysis (reference value: 91.42 %). Type of test: functional.
Test [10] has as its system HCT-116. Nature of the test: Induction of apoptosis in human HCT116 cells assessed as early apoptotic cells at 6 uM measured after 48 hrs by annexin-V staining based flow cytometry (reference value: 0.34 %). The test is classed as functional.
Test [11] relates to HCT-116. Nature of the test: Induction of apoptosis in human HCT116 cells assessed as late apoptotic cells at 3 uM measured after 48 hrs by annexinV-PE/7-AAD staining based flow cytometric analysis (reference value: 0.18 %). The test is classed as functional.
Test [12] relates to HCT-116. Briefly: Induction of autophagy in human HCT116 cells increase in LC3A/B-II level at 3 to 6 uM measured after 48 hrs by Western blot analysis. Type of test: functional, cell-based.
For test [13], the system named is HCT-116. Briefly: Disruption of membrane integrity in human HCT116 cells assessed as decrease in viable cells at 3 uM measured after 48 hrs by propidium iodide staining based flow cytometry relative to control. The test is classed as functional.

For the compound `C(=N\Nc1cnc2ccccc2n1)/c1ccccn1`, the IC50 was 2270 nM in the test on L929, 820 nM in the test on HL-60 and 2620 nM in the test with K562. Moreover, the Activity in the test with HCT-116 [1] worked out at 35.69%; with HCT-116 [2], 9.46%; in the test on HCT-116 [3], 30.19%; with HCT-116 [5], 5.61%; in the test on HCT-116 [6] it was 31.36%; in the test with HCT-116 [7] it was 3.89%. Besides, the Activity with HCT-116 [9] worked out at 90.36%; in the test on HCT-116 [10], 25.6%; with HCT-116 [11] it was 2.55%; in the test with HCT-116 [13], 90.45%. Moreover, the result in the test on HCT-116 [4], with HCT-116 [8] and in the test with HCT-116 [12] was Active. Moreover, the inhibition of growth at 5 µg/mL in the test on OVCAR-8 worked out at 97.8%.
